Assays:
[1] = biological target: T1, rSmGST (Spirometra mansoni, UniProt I1SZ68); test: biochemical; format: biochemical; conditions: for Ki / IC50: 4 mM GSH; for Ki: CDNB varied 0.20 to 2.0 mM, secondary plot of 1/v intercept vs inhibitor concentration; for inhibition pattern: CDNB as the variable substrate, double-reciprocal plots; for maximal slope at IC50 of fractional velocity vs log inhibitor concentration: Supplementary Figure S4; for IC50: concentration giving 50% inhibition, percent residual activity vs log inhibitor concentration, 1 mM CDNB, pH 6.5
Experimental: (§1) The effect of temperature on rSmGST was carried out by keeping the enzyme at different temperatures (15, 20, 25, 30, 35, 40, 45, 50, and 55°C) for 10 min, and then enzyme activity was assayed immediately. The effect of pH on rSmGST was carried out using the phosphate buffer having different pH from 5.5 to 10. Activity of enzyme was determined in 100 mM potassium phosphate buffer (pH 6.5) with 1 mM l-chloro-2,4-dinitrobenzene (CDNB) and 4 mM GSH as substrates by following the change in absorbance at 340 nm (ε 1/4 9.6 mM^−1. cm^−1) for 1 min at 30°C as previously described ([28]). In the kinetic mechanism analysis of rSmGST, double reciprocal Lineweaver-Burk plot was used to graphically determine the apparent Km and Vmax values. Inhibition studies were performed according to the procedure of Tahir et al. ([29]). Different range of concentrations of Rose Bengal (RB, 0.1–1000 μM), Cibacron Blue (CB, 0.1–1000 μM), Bromosulfophtalein (BSP, 0.1–500 μM), and Tripheniltin chloride (TPT, 0.1–100 μM) were used as inhibitors respectively. The concentration of inhibitor giving 50% inhibition (IC50) was obtained by plotting the percent of residual activity vs the log of inhibitor concentration. The Ki values for each rSmGST inhibitor were determined according to methods described in Nava et al. ([30]). To ascertain which type of reversible enzyme inhibition occurs, initial-velocity enzyme reactions in the presence of the inhibitors were performed. The rSmGST was preincubated for a few seconds in the assay buffer with 4 mM GSH and inhibitor at the corresponding concentration (CB, 10, 30 μM; TPT, 4, 8 μM; BSP, 20, 60 μM and RB, 20, 60 μM). The reaction was initiated by addition of one of a range of 0.20 to 2.0 mM of different concentrations of CDNB. A set of reactions under identical conditions was performed for each inhibitor concentration and for the non-inhibitor control.

[2] = biological target: T1, rSmGST; test: Enzyme kinetics of rSmGST with the substrates GSH and CDNB (Lineweaver-Burk plot); format: biochemical; conditions: for saturation point (substrate concentration): no further increase in enzyme activity above this concentration
Experimental: as §1

[3] = substrate: N[C@@H](CCC(=O)N[C@@H](CS)C(=O)NCC(=O)O)C(=O)O; test: as above; format: biochemical, Spirometra mansoni; conditions: other: Lineweaver-Burk plot; GSH 0.5–5.0 mM or CDNB 0.2–2.0 mM as varied substrate; pH 6.5
Experimental: as §1, with “To ascertain which type of reversible enzyme inhibition occurs, initial-velocity enzyme reactions in the presence of the inhibitors were performed. The rSmGST was preincubated for a few seconds in the assay buffer with 4 mM GSH and inhibitor at the corresponding concentration (CB, 10, 30 μM; TPT, 4, 8 μM; BSP, 20, 60 μM and RB, 20, 60 μM). The reaction was initiated by addition of one of a range of 0.20 to 2.0 mM of different concentrations of CDNB. A set of reactions under identical conditions was performed for each inhibitor concentration and for the non-inhibitor control.” left out

[4] = Lineweaver-Burk plot, GSH 0.5–5.0 mM or CDNB 0.2–2.0 mM as varied substrate

| Molecule | Ki [1] [µM] | inhibition pattern [1] | maximal slope at IC50 of fractional velocity vs log inhibitor concentration [1] | IC50 [1] [µM] | other results |
| --- | --- | --- | --- | --- | --- |
| Nc1c(S(=O)(=O)O)cc(Nc2ccc(Nc3nc(Cl)nc(Nc4ccccc4S(=O)(=O)O)n3)c(S(=O)(=O)O)c2)c2c1C(=O)c1ccccc1C2=O [Cibacron Blue] | 20.1 | uncompetitive | −0.51 | 11.7 |  |
| O=[N+]([O-])c1ccc(Cl)c([N+](=O)[O-])c1 [CDNB, 1-chloro-2,4-dinitrobenzene] |  |  |  |  | specific activity of rSmGST toward substrate [2]: 3.12 µmol/min/mg; Km [2, 4]: 6.29 mM; Vmax [2, 4]: 10.120 µmol/min/mL; saturation point (substrate concentration) [2]: 1.6 mM |
| N[C@@H](CCC(=O)N[C@@H](CS)C(=O)NCC(=O)O)C(=O)O [GSH, glutathione] |  |  |  |  | saturation point (substrate concentration) [2]: 4.0 mM |
| [Cl][Sn]([c]1ccccc1)([c]1ccccc1)[c]1ccccc1 [Tripheniltin chloride] | 11.7 | non-competitive | −0.59 | 12.1 |  |
| O=C([O-])c1c(Cl)c(Cl)c(Cl)c(Cl)c1-c1c2cc(I)c(=O)c(I)c-2oc2c(I)c([O-])c(I)cc12.[Na+].[Na+] [Rose Bengal] | 57.6 | uncompetitive | −0.63 | 34 |  |
| O=C1OC(c2ccc(O)c(S(=O)(=O)O)c2)(c2ccc(O)c(S(=O)(=O)O)c2)c2c(Br)c(Br)c(Br)c(Br)c21 [Bromosulfophtalein] | 122 | non-competitive | −0.27 | 290 |  |
| rSmGST (Spirometra erinaceieuropaei) (protein) MGSLPVLEYWKIRGLAQAIRLLFHYLGQEYVEELYEAGGPPDFSREPWLKHKFNKGLDFPNLPYLIDDGFKITQSGAILEYVADKHGMLPTSAKERAVLHMLQNELSGFRASYGRLVYNPDFSKLKQGFLDELPQKLRLWSNYLGDKQWLTGDKIQYPDFNLYDFLDALQNLEPSCLKDFPNLQRYMKRFEDLDKIKEFQKSDAYIAHPFNNTVAAWRGDA |  |  |  |  | Km [3]: 0.78 mM; Vmax [3]: 1.146 µmol/min/mL |
